PubChem BioAssay (NCI)
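All cell lines were grown in 96-well plates and treated with compound for 48 hours. At the TGI there is no net growth.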

Assays:
Test in all cases: NCI tumour cell line growth inhibition, 48 h
[1] = test system: 786-0 renal
[2] = test system: A549 NSCLC
[3] = test system: ACHN renal
[4] = test system: BT-549 breast
[5] = test system: CAKI-1 renal
[6] = test system: CCRF-CEM leukemia
[7] = test system: COLO 205 colon
[8] = test system: DU-145 prostate
[9] = test system: EKVX NSCLC
[10] = test system: HCT-116 colon
[11] = test system: HCT-15 colon
[12] = test system: HL-60(TB) leukemia
[13] = test system: HOP-62 NSCLC
[14] = test system: HOP-92 NSCLC
[15] = test system: HS 578T breast
[16] = test system: HT29 colon
[17] = test system: IGROV1 ovarian
[18] = test system: K-562 leukemia
[19] = test system: KM12 colon
[20] = test system: LOX IMVI melanoma
[21] = test system: M14 melanoma
[22] = test system: MALME-3M melanoma
[23] = test system: MCF7 breast
[24] = test system: MDA-MB-231 breast
[25] = test system: MDA-MB-435
[26] = test system: MDA-N
[27] = test system: MOLT-4 leukemia
[28] = test system: NCI-H226 lung
[29] = test system: NCI-H23 lung
[30] = test system: NCI-H460 lung
[31] = test system: NCI/ADR-RES ovarian
[32] = test system: OVCAR-3 ovarian
[33] = test system: OVCAR-4 ovarian
[34] = test system: OVCAR-5 ovarian
[35] = test system: OVCAR-8 ovarian
[36] = test system: PC-3 prostate
[37] = test system: RPMI-8226 leukemia
[38] = test system: RXF 393 renal
[39] = test system: SF-268 CNS
[40] = test system: SF-295 CNS
[41] = test system: SF-539 CNS
[42] = test system: SK-MEL-2 melanoma
[43] = test system: SK-MEL-28 melanoma
[44] = test system: SK-MEL-5 melanoma
[45] = test system: SK-OV-3 ovarian
[46] = test system: SN12C renal
[47] = test system: SNB-19 CNS
[48] = test system: SNB-75 CNS
[49] = test system: SR leukemia
[50] = test system: SW-620 colon
[51] = test system: TK-10 renal
[52] = test system: U251 CNS
[53] = test system: UACC-257 melanoma
[54] = test system: UACC-62 melanoma
[55] = test system: UO-31 renal

Measured: TGI

O=C(OCCN=C1c2ccccc2CCc2ccccc21)c1cc([N+](=O)[O-])cc([N+](=O)[O-])c1
> 100 µM: [4] | [6] | [12] | [18] | [33] | [45] | [48] | [52] | [55]
5.5 µM: [49]
8.14 µM: [37]
> 31.6 µM: [1] | [2] | [3] | [5] | [7] | [8] | [9] | [10] | [11] | [13] | [14] | [15] | [16] | [17] | [19] | [20] | [21] | [22] | [23] | [24] | [25] | [26] | [28] | [29] | [30] | [31] | [32] | [34] | [35] | [36] | [38] | [39] | [40] | [41] | [42] | [43] | [44] | [46] | [47] | [50] | [51] | [53] | [54]
7.09 µM: [27]
